≈ marks a conversion by molar mass, not a printed value.

For one assay, the system named is Metaphire sieboldi. The assay can be described thus: Anthelmintic activity against Metaphire sieboldi assessed as mean paralysing time up to 0.5% w/v. Type of assay: functional.
The test system of the next assay is SNU1. Kind of assay: Anticancer activity against human SNU1 cells assessed as cell growth inhibition measured after 3 days by CCK-8 assay. Type of assay: functional. As to conditions: SNU1, 72 h, time 3 day. Background: Formazan colour is commonly taken as a measure of viable cells.
The next assay has as its system K562. The assay can be described thus: Anticancer activity against human K562 cells assessed as cell growth inhibition measured after 3 days by CCK-8 assay. It counts as functional. As to conditions: K562, 72 h, time 3 day.
In another assay the test system is AGS. Kind of assay: Anticancer activity against human AGS cells assessed as cell growth inhibition measured after 3 days by CCK-8 assay. Type of assay: functional. As to conditions: 72 h, time 3 day.
Assay [1] can be described thus: Anticancer activity against human KATO III stomach cancer cell line assessed as cell growth inhibition measured after 3 days by CCK-8 assay. Particulars: 72 h, time 3 day. It counts as functional.
Assay [2] deals with Serum paraoxonase/arylesterase 1 (Homo sapiens, UniProt P27169). The assay can be described thus: Inhibition of human PON1 using paraoxon as a substrate by regression analysis.
Assay [3] concerns Staphylococcus aureus. Kind of assay: Antibacterial activity against Staphylococcus aureus ATCC 6538 assessed as zone of inhibition at 500 ug per disk measured after 24 hrs by NCCLS based disk diffusion method. It counts as functional. Particulars: read-out: DIZ. On the technique in general: In agar diffusion tests the substance spreads into inoculated agar from a disc or well.

For a further assay, the system named is NCI-H460. Kind of assay: Anticancer activity against human NCI-H460 cells assessed as cell growth inhibition measured after 72 hrs by MTT assay. Particulars: NCI-H460, 72 h. It counts as functional, cell-based.
The nature of assay [4]: Anticancer activity against human U-87 MG cells assessed as cell growth inhibition measured after 72 hrs by MTT assay. It counts as functional, cell-based, U-87MG ATCC.
The test system of a further assay is HT-29. Kind of assay: Anticancer activity against human HT-29 cells assessed as cell growth inhibition measured after 72 hrs by MTT assay. Type of assay: functional, cell-based. As to conditions: HT-29, 72 h.
In a further assay the test system is A549. Kind of assay: Anticancer activity against human A549 cells assessed as cell growth inhibition measured after 72 hrs by MTT assay. It counts as functional, cell-based. Particulars: A549, 72 h.
The next assay relates to SMMC-7721. The assay can be described thus: Anticancer activity against human SMMC-7721 cells assessed as cell growth inhibition measured after 72 hrs by MTT assay. It counts as functional, cell-based. As to conditions: SMMC-7721, 72 h.
Assay [5] relates to Aspergillus flavus. The assay can be described thus: […] activity against Aspergillus flavus assessed as cell growth inhibition measured after 24 hrs by serial broth-dilution method. It counts as functional.
For assay [6], the system named is Pseudomonas aeruginosa. The assay can be described thus: Antibacterial activity against Pseudomonas aeruginosa assessed as cell growth inhibition measured after 24 hrs by serial broth-dilution method. It counts as functional.
Assay [7] deals with Pseudomonas aeruginosa. Kind of assay: Antibacterial activity against Pseudomonas aeruginosa assessed as zone of inhibition measured after 24 hrs by agar well diffusion method. Type of assay: functional.
The subject of assay [8] is Aspergillus flavus. The assay can be described thus: […] activity against Aspergillus flavus assessed as zone of inhibition measured after 24 hrs by agar well diffusion method. Type of assay: functional.
Assay [9] in a line: Antibacterial activity against Xanthomonas citri assessed as zone of inhibition at 25 ug/ml. Type of assay: functional. Particulars: read-out: DIZ.
Assay [10] deals with Escherichia coli. Kind of assay: Antibacterial activity against Escherichia coli assessed as zone of inhibition at 25 ug/ml. Type of assay: functional. Particulars: read-out: DIZ.
For a further assay, the system named is Mus musculus. Kind of assay: Antiinflammatory activity in carrageenan induced mouse paw oedema model assessed as inhibition of paw oedema at 100 mg/kg, po pretreated with compound for 30 mins followed by carrageenan injection measured after 5 hrs relative to control. It counts as functional. Details: scale not given: the % may be the effect or the level left. Particulars: time 5.5 hrs. On the technique in general: The carrageenan paw model is a standard test of acute inflammation.

Assay [11] is described as follows: Antioxidant activity assessed as DPPH radical scavenging activity incubated for 10 mins in dark condition by spectrophotometer method. It counts as functional.
The subject of assay [12] is Bacillus subtilis. The assay can be described thus: Antibacterial activity against Bacillus subtilis assessed as zone of inhibition measured after 24 hrs by agar well diffusion method. Type of assay: functional.
Assay [13] can be described thus: Antioxidant activity assessed as DPPH radical scavenging activity preincubated for 24 hrs followed by dark incubation 30 mins by UV-visible spectrophotometer method. It counts as functional.
Assay [14] concerns Escherichia coli. The assay can be described thus: Antibacterial activity against Escherichia coli assessed as zone of inhibition measured after 24 hrs by agar well diffusion method. It counts as functional.
The subject of assay [15] is Bacillus subtilis. Kind of assay: Antibacterial activity against Bacillus subtilis MTCC 1789 measured after 16 hrs by CLSI based microtitre broth dilution method. It counts as functional.
The subject of assay [16] is Staphylococcus aureus. The assay can be described thus: Antibacterial activity against Staphylococcus aureus ATCC 6538P measured after 16 hrs by CLSI based microtitre broth dilution method. It counts as functional.
Assay [17] has as its system Escherichia coli. The assay can be described thus: Antibacterial activity against Escherichia coli MTCC 739 measured after 16 hrs by CLSI based microtitre broth dilution method. It counts as functional.
For assay [18], the system named is Pseudomonas aeruginosa. The assay can be described thus: Antibacterial activity against Pseudomonas aeruginosa ATCC 25668 measured after 16 hrs by CLSI based microtitre broth dilution method. Type of assay: functional.

Serum paraoxonase/arylesterase 1, sequence (P27169 whole entry, the tested form may be a part): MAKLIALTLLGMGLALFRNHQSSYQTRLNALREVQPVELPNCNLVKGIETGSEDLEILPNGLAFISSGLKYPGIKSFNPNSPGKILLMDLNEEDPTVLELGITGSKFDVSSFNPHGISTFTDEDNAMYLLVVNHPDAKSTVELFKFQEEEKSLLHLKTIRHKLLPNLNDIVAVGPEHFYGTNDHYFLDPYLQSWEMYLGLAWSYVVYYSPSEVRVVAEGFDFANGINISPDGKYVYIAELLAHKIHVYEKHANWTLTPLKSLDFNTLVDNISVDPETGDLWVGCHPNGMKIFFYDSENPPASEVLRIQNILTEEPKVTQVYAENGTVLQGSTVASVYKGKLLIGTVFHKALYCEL

Regarding `O=C(Cc1cc(=O)oc2ccccc12)Nc1nc2ccccc2[nH]1`, in the assay on Metaphire sieboldi, the Time is listed as 14 min.
What is called GI50 is the concentration giving 50% growth inhibition. With `CCN(CC)c1ccc2cc(-c3nc4cc(C)ccc4n3C)c(=O)oc2c1`, the 50% growth inhibitory concentration (GI50) in the assay with SNU1 is 120 nM; with K562, 670 nM; in the assay with AGS, 780 nM; in assay [1] it was 590 nM.
A word on the IC50: it is the concentration needed to halve the response being measured. `Cc1c(C)c(C)c(Cn2c[n+](Cc3cc(=O)oc4cc(O)ccc34)c3ccccc32)c(C)c1C`: in assay [2], the concentration for half-maximal inhibition (IC50) was found to be 7840 nM.
Consider `O=c1oc2ccccc2c(Nc2nc3ccccc3[nH]2)c1[N+](=O)[O-]`, for which, in the assay with Staphylococcus aureus [3], the zone of inhibition at 500 µg/disc was 23 mm.
Turning to `O=C(CCl)n1c(-c2cc3ccccc3oc2=O)nc2ccccc21`, the IC50 in the assay on NCI-H460 is 590 nM; in assay [4], 340 nM; with HT-29, 570 nM; in the assay on A549, 290 nM.
In the case of `O=C(/C(Cl)=N/Nc1ccc(Cl)cc1Cl)n1c(-c2cc3ccccc3oc2=O)nc2ccccc21`, the 50% inhibitory concentration (IC50) is 220 nM in the assay on SMMC-7721, 360 nM in the assay on NCI-H460, 290 nM in assay [4] and 250 nM in the assay with A549.
A word on the MIC: it is the lowest concentration found to suppress growth. For the compound `O=c1oc2ccccc2c(O)c1C(Sc1nc2ccccc2[nH]1)c1ccccc1` (stereo not drawn), the MIC in the assay on Aspergillus flavus [5] and with Pseudomonas aeruginosa [6] was 200 µg/mL (≈ 499 µM) in each case. The “diameter of the inhibition zone (DIZ)” value in the assay on Pseudomonas aeruginosa [7] came to 23 mm; in the assay on Aspergillus flavus [8] it was 18 mm.
As to `CCOC(=O)c1sc(Sc2cc3ccccc3oc2=O)c(-c2nc3ccccc3[nH]2)c1N`, the zone of inhibition at 25 µg/mL was 14 mm in assay [9] and 19 mm in the assay on Escherichia coli [10].
On to `COc1ccc(N2CC(c3cc(=O)oc4cc(C)ccc34)c3nc4ccccc4n3C2)cc1` (stereo not drawn), for which, in the assay with Mus musculus, the Activity was 52.61%.
For `O=C(CC(Sc1nc2ccccc2[nH]1)c1ccccc1)c1cc2ccccc2oc1=O` (stereo not drawn), in assay [11], the IC50 was 35000 µg/mL (≈ 82100 µM). Moreover, the MIC in the assay with Pseudomonas aeruginosa [6] was 2200 µg/mL (≈ 5160 µM).
With `O=c1oc2ccccc2c(O)c1C(Sc1nc2ccccc2[nH]1)c1ccc(O)cc1` (stereo not drawn), the “diameter of the inhibition zone (DIZ)” value was 19 mm in the assay on Bacillus subtilis [12], 18 mm with Aspergillus flavus [8] and 17 mm in the assay with Escherichia coli [14]. For the same compound, the minimal inhibitory concentration (MIC) with Aspergillus flavus [5] was found to be 200 µg/mL (≈ 480 µM). For the same compound, in assay [13], the IC50 was 9.82 µg/mL (≈ 23.6 µM).
Consider `O=c1oc2ccccc2cc1/C(Cn1cnc2ccccc21)=N\OCc1ccc(Cl)cc1`, for which the MIC against Bacillus subtilis [15] worked out at 0.95 µg/mL (≈ 2.14 µM); against Staphylococcus aureus [16] it was 1.56 µg/mL (≈ 3.51 µM); in the assay on Escherichia coli [17] it was 3.12 µg/mL (≈ 7.03 µM); against Pseudomonas aeruginosa [18], 3.12 µg/mL (≈ 7.03 µM).

Source of the values: ChEMBL document CHEMBL5126506, “Coumarin-benzimidazole hybrids: A review of developments in medicinal chemistry” (Eur J Med Chem, 2022).
